Source: patent publication EP1581471B9, “CYCLOPENTENONE DERIVATIVES FOR CANCER THERAPY” (Dabur Research Foundation, priority 2002, dated 2004)
Values after ≈ are worked out from the molar mass of the structure shown.

Columns and labels:
VEGF = VEGF levels in ECV304 endothelial cells (ELISA); format: cell-based, Human; conditions: 5ug/ml, 4 hours
Procedure: Human endothelial cells (ECV304) were plated at the density of 8-10 x10^5 cells per 2 ml in a six well plate. After an overnight incubation of cells at 37°C, cyclopentenone derivatives at a concentration of 5ug/ml was added to the wells. The untreated wells served as controls. The plates were incubated for 4 hours at 37°C. The medium was collected from all the wells (control and treated) and spun down at 2000 r.p.m to remove the cellular material. The supernatant was collected and used for ELISA (Quantikine human VEGF, R&D Systems). The assay employs the quantitative sandwich enzyme immunoassay technique. A monoclonal antibody specific for VEGF has been pre-coated onto a microplate. Standards and samples were pipetted into the wells and VEGF present was bound by the immobilized antibody. After washing away the unbound substances, an enzyme-linked polyclonal antibody specific for VEGF was added to the wells. Following a wash to remove any unbound antibody-enzyme reagent, a substrate solution was added to the wells and color developed in proportion to the amount of VEGF bound in the initial step. The optical density of each well was determined within 30 minutes using a microplate reader set to 450nm and reference wavelength at 540nm. The VEGF levels were inhibited by the addition of cyclopentenone derivatives in vitro.

Caspase-3 = Caspase-3 induction in KB cells (colorimetric substrate DEVD-pNA); format: cell-based, Human; conditions: 5ug/ml
Procedure: Human squamous cell carcinoma (KB) were plated in a 25 cm^2 flask. When cultures achieved confluence, the cyclopentenone derivative of structure 20 was added to the cells. The final concentration of derivative of the structure 20 in the flask was 5ug/ml. The untreated wells served as controls. The cells were incubated with the drug for 2 different time points of 6 and 16 hours at 37°C. The cells were collected by centrifugation at 2000 r.p.m. for 10 minutes. The supernatant was gently removed and discarded while Lysis Buffer was added to the cell pellet (25ul of lysis buffer per […]). The cell lysate was incubated on ice for 10 minutes and centrifuged at 10,000-x g for 1 minute. The supernatant was transferred to a new tube and kept on ice. 50ul of the cell lysate was added in a 96 well plate. To this was added 2x Reaction Buffer. Prior to using reaction buffer, 10ul of fresh DTT stock per 1 ml of 2x Reaction Buffer was added. To each well 5ul of Caspase-3 colorimetric substrate (DEVD-pNA) was added. The plate was incubated for 1-2 hours at […]. and read at 405nm.
The level of caspase enzymatic activity in the cell lysate is directly proportional to the absorbance at 405nm. […]

tubulin = tubulin polymerization in vitro (absorbance at 340 nm); format: biochemical; conditions: tubulin 1mg/ml, 37°C, pH 6.9; read-out: IC50 values (uM) for inhibition of Tubulin Polymerization
Procedure: The cyclopentenone derivatives were checked for their effects on tubulin polymerization in vitro. Briefly, the tubulin assembly reaction was performed at 37°C in buffer containing 80 mM PIPES, 1mM EGTA, 1.0 mM GTP and 1mM MgCl2 (pH 6.9) at a tubulin concentration of 1mg/ml in the presence or absence of the cyclopentenone derivatives. The final concentration of the cyclopentenone derivatives in the reaction mixture varied from 1-5uM. The derivatives were dissolved in 0.1% DMSO. The control experiments were carried out with 0.1% DMSO. The tubulin polymerization was followed by measurement of the absorbance of the solution at 340 nm every 30 seconds. […] Thus the cyclopentenone derivatives mediated their observed anticancer activities by tubulin depolymerization.

PTC = assay: three day MTT cytotoxicity assay; format: cell-based, human; conditions: PTC (colon), 72 hours
Procedure: (§1) A number of the cyclopentenone derivatives were tested for cytotoxicity against 9 human tumor cell lines. Briefly, a three day MTT cytotoxicity assay was performed, which is based on the principle of uptake of MTT (3-(4,5-dimethylthiazol-2-yl)-2,5-diphenyl tetrazolium bromide), a tetrazolium salt, by the metabolically active cells where it is metabolized by active mitochondria into a blue colored formazan product that is read spectrophotometrically. MTT was dissolved in phosphate buffered saline with a pH of 7.4 to obtain an MTT concentration of 5mg/ml; the resulting mixture was filtered through a 0.22 micron filter to sterilize and remove a small amount of insoluble residue. For each type of tumor cell, 10000 to 15000 cells were seeded in a 96-well culture plate and incubated with the individual cyclopentenone derivatives in a CO2 incubator for a total of 72 hours. Control cells not treated with the cyclopentenone derivatives were similarly incubated. The assay was terminated by adding 100 ug (20 ul) of MTT to each well, then incubating for additional one hour, and finally adding 50 ul of 10% SDS-0.01N HCl to each well to lyse the cells and dissolve formazan. After incubating for one hour, the plate was read spectrophotometrically at 540 nm and the percentage of cytotoxicity calculated using the following formula: Cytotoxicity percentage = 100 × [1-(X/R1)], [formula] where X = (absorbance of treated sample at 540 nm) - (absorbance of blank at 540 nm) R1 = absorbance of control sample at 540 nm.
(§2) The ED50 Values of the cytotoxicity defined as the concentration at which 50 % of the cells are killed in vitro was calculated for each cell line treated with each of the cyclopentenone derivatives.
(§3) The cell lines are PTC (all colon), MOLT-4 (leukemia), SW620 […], DU145 (prostate), KB (oral squamous cell), L132 (lung), MIAPaCa2 (Pancreas), Hep2, (larynx), PA-1 (ovary), HuTu80 (duodenum), ECV 304 (endothelial), and 293 (kidney).

L132 = assay: three day MTT cytotoxicity assay; format: cell-based, human; conditions: L132 (lung), 72 hours
Procedure: as §1, §2, §3

SW620 = assay: three day MTT cytotoxicity assay; format: cell-based, human; conditions: 72 hours
Procedure: as §1, §2, §3

MIAPaCa2 = assay: three day MTT cytotoxicity assay; format: cell-based, human; conditions: MIAPaCa2 (Pancreas), 72 hours
Procedure: as §1, §2, §3

PA-1 = assay: three day MTT cytotoxicity assay; format: cell-based, human; conditions: PA-1 (ovary), 72 hours
Procedure: as §1, §2, §3

ECV 304 = assay: three day MTT cytotoxicity assay; format: cell-based, human; conditions: ECV 304 (endothelial), 72 hours
Procedure: as §1, §2, §3

Hep2 = assay: three day MTT cytotoxicity assay; format: cell-based, human; conditions: Hep2 (larynx), 72 hours
Procedure: as §1, §2, §3

KB = assay: three day MTT cytotoxicity assay; format: cell-based, human; conditions: KB (oral squamous cell), 72 hours
Procedure: as §1, §2, §3

MOLT-4 = assay: three day MTT cytotoxicity assay; format: cell-based, human; conditions: MOLT-4 (leukemia), 72 hours
Procedure: as §1, §2, §3

DU145 = assay: three day MTT cytotoxicity assay; format: cell-based, human; conditions: DU145 (prostate), 72 hours
Procedure: as §1, §2, §3

HuTu80 = assay: three day MTT cytotoxicity assay; format: cell-based, human; conditions: HuTu80 (duodenum), 72 hours
Procedure: as §1, §2, §3

293 = assay: three day MTT cytotoxicity assay; format: cell-based, human; conditions: 293 (kidney), 72 hours
Procedure: as §1, §2, §3

Row | SMILES | Percent Reduction in VEGF (VEGF) [%] | Percent Induction of Caspase-3 6 hours (Caspase-3) [%] | Percent Induction of Caspase-3 16 hours (Caspase-3) [%] | IC50 (tubulin) [µM] | ED50 (ug/ml) PTC (PTC) [µg/mL] | ED50 (ug/ml) L132 (L132) [µg/mL] | ED50 (ug/ml) SW620 (SW620; SW620 (ovary)) [µg/mL] | ED50 (ug/ml) MiaPaca (MIAPaCa2) [µg/mL] | ED50 (ug/ml) PA1 (PA-1) [µg/mL] | ED50 (ug/ml) ECV 304 (ECV 304) [µg/mL] | ED50 (ug/ml) Hep2 (Hep2) [µg/mL] | ED50 (ug/ml) KB (KB) [µg/mL] | ED50 (ug/ml) MOLT4 (MOLT-4) [µg/mL] | ED50 (ug/ml) DU145 (DU145) [µg/mL] | ED50 (ug/ml) SW620 (SW620; SW620 (colon)) [µg/mL] | ED50 (ug/ml) HuTu80 (HuTu80) [µg/mL] | ED50 (ug/ml) 293 293 [µg/mL]
1 | COc1ccc(C2=C(c3cc(OC)c(OC)c(OC)c3)C(=O)C(O)C2)cc1 (stereo not drawn) [Compound 48] | 23.7 ± 2.2 | 18.4 ± 1.1 | 22.7 ± 1.5 | 2.1 ± 0.1 | 6.0 ± 1.5 (≈ 16.2 µM) | 9.0 ± 3.3 (≈ 24.3 µM) | <1.0 | 79 ± 9.5 (≈ 213 µM) | <1.0 | >100 | <1.0 | 8 ± 2.1 (≈ 21.6 µM) | <1.0 | >100 |  |  | 
2 | COc1ccc(C2=C(c3cc(OC)c(OC)c(OC)c3)C(=O)C(O[Si](C)(C)C(C)(C)C)C2)cc1 (stereo not drawn) [Compound 52, O-tert-Butyldimethylsilyloxy-3-(4-methoxyphenyl)-2-(3,4,5-trimethoxyphenyl)-cyclopent-2-en-1-one] |  |  |  |  | 16 ± 3.6 (≈ 33 µM) | 9.0 ± 2.5 (≈ 18.6 µM) | 5.0 ± 1.0 (≈ 10.3 µM) | <1.0 | 7.0 ± 3.5 (≈ 14.4 µM) | 16 ± 4.0 (≈ 33 µM) | 16 ± 3.0 (≈ 33 µM) | 7.0 ± 3.0 (≈ 14.4 µM) | 3.0 ± 1.5 (≈ 6.19 µM) | 28 ± 4.0 (≈ 57.8 µM) |  |  | 
3 | COc1cc(C2=C(c3ccc(SC)cc3)CC(O[Si](C)(C)C(C)(C)C)C2=O)cc(OC)c1OC (stereo not drawn) [Compound 55, 5-tert-Butyldimethylsilyloxy-3-(4-thiomethylphenyl)-2-(3,4,5 trimethoxyphenyl)-cyclopent-2-en-1-one] |  |  |  |  | 14 ± 3.5 (≈ 28 µM) | <1.0 | <1.0 | <1.0 | <1.0 | >100 | >100 | 10 ± 1.5 (≈ 20 µM) | <1.0 | >100 |  |  | 
4 | COc1ccc(C2=C(c3cc(OC)c(OC)c(OC)c3)C(=O)C(O[Si](C)(C)C(C)(C)C)C2)cc1OC(C)C (stereo not drawn) [Compound 56, 5-tert-Butyldimethylsilyloxy-3-(4-methoxy-3-i-propoxyphenyl)-2-(3,4,5-trimethoxyphenyl)-cyclopent-2-en-1-one] |  |  |  |  | >100 | 7 (≈ 12.9 µM) |  | >100 | 7.1 ± 1.5 (≈ 13.1 µM) | >100 | 7.1 ± 1.5 (≈ 13.1 µM) | 7.5 ± 3.5 (≈ 13.8 µM) | 22.5 ± 4.0 (≈ 41.5 µM) | 6.3 ± 2.1 (≈ 11.6 µM) | 9 ± 1.5 (≈ 16.6 µM) | 6 ± 0.5 (≈ 11.1 µM) | >100
5 | COc1ccc(C2=C(c3cc(OC)c(OC)c(OC)c3)C(=O)C(O)C2)cc1F (stereo not drawn) [Compound 64, 5-Hydroxy-3-(3-fluoro-4-methoxyphenyl)-2-(3,4,5-trimethoxyphenyl)-cyclopent-2-en-1-one] |  |  |  |  | 20 ± 2.5 (≈ 51.5 µM) | <1 |  | 64 ± 3.5 (≈ 165 µM) |  | 19.5 ± 4.5 (≈ 50.2 µM) | <1 | 4.5 ± 1.5 (≈ 11.6 µM) |  | 27 ± 3.5 (≈ 69.5 µM) | <1 | <1 | >100
6 | COc1ccc(C2=C(c3cc(OC)c(OC)c(OC)c3)/C(=N\O)C(O)C2)cc1F (stereo not drawn) [Compound 66] | 12.9 ± 2.9 | 17.0 ± 1.0 | 22.1 ± 0.6 | 2 ± 0.6 | 27 ± 3.5 (≈ 66.9 µM) | <1 |  | 94 ± 10.0 (≈ 233 µM) |  | 43 ± 4.5 (≈ 107 µM) | <1 | <1 |  | 10 ± 5.1 (≈ 24.8 µM) | <1 | 9 ± 3.1 (≈ 22.3 µM) | >100
7 | COc1ccc(C2=C(c3cc(OC)c(OC)c(OC)c3)C(=O)C(O)C2)cc1Cl (stereo not drawn) [Compound 67, 5-Hydroxy-3-(3-chloro-4-methoxyphenyl)-2-(3,4,5-trimethoxyphenyl)-cyclopent-2-en-1-one] |  |  |  |  | 30 ± 4.0 (≈ 74.1 µM) | <1 | <1 | >100 |  | 20 ± 3.5 (≈ 49.4 µM) | <1 | 2.5 ± 0.1 (≈ 6.18 µM) |  | 40 ± 8.5 (≈ 98.8 µM) |  | 29 ± 2.5 (≈ 71.6 µM) | >100
8 | COc1ccc(C2=C(c3cc(OC)c(OC)c(OC)c3)C(=O)C(O)C2)cc1O (stereo not drawn) [Compound 74] | 16.9 ± 0.5 | 21.8 ± 2.8 | 28.4 ± 2.1 | 1.8 ± 0.5 |  |  |  |  |  |  |  |  |  |  |  |  | 
